Read-outs that look alike come from different tables or passages of the source.
Assays:
[1] = system: YFV; test: microbe, parasite or virus in culture; type: cell-based, Yellow fever virus strain 17D; settings: for EC50: read-out: Anti-YFV Activity (Huh-7) EC50; for EC90: read-out: Anti-YFV Activity (Huh-7) EC90
[2] = system: Huh-7 cells; settings: human
[3] = in vitro; settings: human
[4] = in vitro; settings: human; remark: listed apart in the source
[5] = in vitro; settings: African green monkey
[6] = in vitro; settings: human; for CC50: Cytotoxicity CC50 Huh-7
[7] = system: primary human hepatocytes
[8] = system: YFV; test: microbe, parasite or virus in culture; type: cell-based; settings: Yellow fever virus, RD, read-out: EC50, inhibition of YFV replication in RD cells
[9] = system: YFV; settings: cited from earlier work
[10] = system: YFV; test: microbe, parasite or virus in culture; type: cell-based, Yellow fever virus strain 17D; settings: Yellow fever virus, Huh-7, 72 h, read-out: EC50 in 3D cultures
[11] = system: YFV; test: microbe, parasite or virus in culture; type: cell-based, Yellow fever virus strain 17D; settings: Yellow fever virus, Macrophage; for EC50: read-out: EC50, YFV replication in MDM
[12] = system: MDM; settings: human
[13] = system: YFV 17D; settings: mouse, in vivo
[14] = in vitro; settings: human; remark: listed apart in the source
[15] = system: Huh-7 cells; settings: cited from earlier work
[16] = system: primary human hepatocytes; settings: cited from earlier work
[17] = system: Huh-7 cells; settings: human; remark: listed apart in the source
[18] = system: YFV; settings: mouse, in vivo; cited from earlier work
[19] = Yellow fever virus, Huh-7, 72 h

| SMILES | EC50 [1, 19] [µM] | EC90 [1, 19] [µM] | NTP formation in Huh-7 cells [2] [pmol / 10^6 cells] | CC50 [3] [µM] | CC50 [4] [µM] | CC50 [5] [µM] | CC50 [6] [µM] | further results |
| --- | --- | --- | --- | --- | --- | --- | --- | --- |
| O=c1ccn([C@@H]2O[C@H](CO)[C@@H](O)C2(Cl)Cl)c(=O)[nH]1 [Compound 2] | > 10 | > 10 | 0.5 | > 100 | > 100 | > 100 | > 100 | – |
| CC(C)OC(=O)[C@H](C)NP(=O)(OC[C@H]1O[C@@H](n2ccc(=O)[nH]c2=O)C(Cl)(Cl)[C@@H]1O)Oc1ccccc1 (some centres unmarked) [Compound 3] | 0.4 ± 0.5 | 3.2 ± 2.7 | 39.7 | > 100 | > 100 | > 100 | > 100 | NTP formation in primary human hepatocytes [7]: 622.0 pmol / 10^6 cells |
| O=c1ccn([C@@H]2O[C@H](CO)[C@@H](O)[C@]2(F)Cl)c(=O)[nH]1 [Compound 4] | > 10 | > 10 | 0.5 | > 100 | > 100 | > 100 | > 100 | – |
| CC(C)OC(=O)[C@H](C)NP(=O)(OC[C@H]1O[C@@H](n2ccc(=O)[nH]c2=O)[C@@](F)(Cl)[C@@H]1O)Oc1ccccc1 (some centres unmarked) [Compound 5] | 0.4 ± 0.2 | 6.5 ± 2.6 | 866.2 | > 100 | > 100 | > 100 | – | EC50 [8]: 0.5 ± 0.2 µM; NTP formation in primary human hepatocytes [7]: 5245.0 pmol / 10^6 cells; Reduction of CPE in RD cell line [9]: < 2% |
| O=c1ccn([C@@H]2O[C@H](CO)[C@@H](O)[C@@]2(F)Cl)c(=O)[nH]1 [Compound 6] | > 10 | > 10 | – | > 100 | > 100 | > 100 | > 100 | – |
| CC(C)OC(=O)[C@H](C)NP(=O)(OC[C@H]1O[C@@H](n2ccc(=O)[nH]c2=O)[C@](F)(Cl)[C@@H]1O)Oc1ccccc1 (some centres unmarked) [Compound 7] | > 10 | > 10 | – | > 100 | > 100 | > 100 | – | – |
| O=c1ccn([C@@H]2O[C@H](CO)[C@@H](O)[C@]2(F)Br)c(=O)[nH]1 [Compound 8] | > 10 | > 10 | – | > 100 | > 100 | > 100 | > 100 | – |
| CC(C)OC(=O)[C@H](C)N[P@](=O)(OC[C@H]1O[C@@H](n2ccc(=O)[nH]c2=O)[C@@](F)(Br)[C@@H]1O)Oc1ccccc1 [Compound 9] | 0.85 | 7.8 ± 3.6 | – | > 100 | > 100 | > 100 | – | EC50 [1]: 0.9 ± 0.8 µM; EC50 [10]: 3.2 µM; EC50 [11]: 0.4 ± 0.1 µM; EC90 ([11]; read-out: EC90, YFV replication in MDM): 1.5 ± 0.6 µM; Cytotoxicity in MDM [12]: no notable cytotoxicity up to 100 µM; Immune cell infiltration into the liver [13]: significantly reduced; Impact on total circulating leukocytes [13]: no adverse impact; Impact on weight loss [13]: no adverse impact; Levels of serum transaminase (ALT) [13]: reduced; Percentage of mice with absent inflammatory cell infiltration in the liver [13]: 25%; Percentage of mice with mild inflammatory cell infiltration in the liver [13]: 50%; Percentage of mice with minimum inflammatory cell infiltration in the liver [13]: 25%; YFV genome copy levels (virus load) in liver [13]: significant reduction; viability at 100 µM [6]: 87.1%; viability at 100 µM [14]: 84.3 ± 0.9%; NTP formed in Huh-7 cells [15]: 646 ± 107 pmol/10^6 cells; NTP formed in primary hepatocytes [16]: 3206 ± 247 pmol/10^6 cells |
| O=c1ccn([C@@H]2O[C@H](CO)[C@@H](O)[C@@]2(F)Br)c(=O)[nH]1 [Compound 10] | > 10 | > 10 | – | > 100 | > 100 | > 100 | > 100 | – |
| CC(C)OC(=O)[C@H](C)NP(=O)(OC[C@H]1O[C@@H](n2ccc(=O)[nH]c2=O)[C@](F)(Br)[C@@H]1O)Oc1ccccc1 (some centres unmarked) [Compound 11] | > 10 | > 10 | – | > 100 | > 100 | > 100 | – | – |
| CC(C)OC(=O)[C@H](C)N[P@](=O)(OC[C@H]1O[C@@H](n2ccc(=O)[nH]c2=O)[C@](C)(F)[C@@H]1O)Oc1ccccc1 [Sofosbuvir, sofosbuvir, reference compound] | 0.6 ± 0.6 | 3.5 ± 1.5 | 317.2 | > 100 | > 100 | > 100 | < 100 | EC50 [11]: 0.4 ± 0.3 µM; CC50 [17]: 88.5 ± 11.6 µM; NTP formation in primary human hepatocytes [7]: 2230.0 pmol / 10^6 cells; Viral burden in sera, livers, kidneys and spleens [18]: failed to reduce viral burden |
